{"source": "ChEMBL document CHEMBL3576862", "about": "“Peptidic inhibitors for in vitro pentamer formation of human papillomavirus capsid protein l1” (ACS Med Chem Lett, 2015)", "key": {"[1]": {"target": "T1, Major capsid protein L1 (Human papillomavirus 16) (UniProt P03101)", "T1 sequence (whole entry)": "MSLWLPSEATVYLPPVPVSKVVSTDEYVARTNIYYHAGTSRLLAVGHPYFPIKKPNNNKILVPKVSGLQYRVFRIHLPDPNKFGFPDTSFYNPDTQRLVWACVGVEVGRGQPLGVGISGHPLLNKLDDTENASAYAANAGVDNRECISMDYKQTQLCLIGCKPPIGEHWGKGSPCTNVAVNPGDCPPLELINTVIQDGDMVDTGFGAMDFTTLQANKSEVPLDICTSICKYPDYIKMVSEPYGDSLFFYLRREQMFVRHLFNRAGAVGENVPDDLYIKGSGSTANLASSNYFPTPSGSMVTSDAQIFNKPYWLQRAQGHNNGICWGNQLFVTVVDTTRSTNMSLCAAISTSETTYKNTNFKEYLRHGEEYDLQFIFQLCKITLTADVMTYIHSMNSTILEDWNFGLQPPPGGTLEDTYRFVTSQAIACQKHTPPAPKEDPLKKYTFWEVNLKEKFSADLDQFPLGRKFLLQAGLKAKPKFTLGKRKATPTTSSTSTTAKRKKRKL", "test": "Inhibition of GST-tagged HPV16 major capsid protein L1 pentamer formation at 1:100 ratio of pentamer to compound in presence of PPase by FPLC method"}, "[2]": {"target": "T1, Major capsid protein L1 (Human papillomavirus 16)", "test": "Binding affinity to GST-tagged HPV16 major capsid protein L1 pentamer formation at 1:100 ratio of pentamer to compound by CD spectroscopy method"}, "[3]": {"target": "T2, Major capsid protein L1 (Human papillomavirus 16, UniProt P03101)", "T2 sequence (P03101 whole entry)": "T1 sequence (whole entry)", "test": "(§1) Inhibition of pentamer formation of GST-tagged HPV16 major capsid protein L1 assessed as increased L1-m peak formation incubated with compound after overnight PPase-mediated digestion by size-exclusion chromatography"}, "[4]": {"target": "T1, Major capsid protein L1 (Human papillomavirus 16)", "test": "Binding affinity to GST-tagged HPV16 major capsid protein L1 assessed as increase in thermal stability by measuring melting temperature at 1:100 ratio of pentamer to compound by UV cloud point measurement assay"}, "[5]": {"target": "T1, Major capsid protein L1 (Human papillomavirus 16)", "test": "as §1"}, "[6]": {"target": "T1, Major capsid protein L1 (Human papillomavirus 16)", "test": "Binding affinity to GST-tagged HPV16 major capsid protein L1 by FRET assay"}, "[7]": {"target": "T1, Major capsid protein L1 (Human papillomavirus 16)", "test": "Inhibition of GST-tagged HPV16 major capsid protein L1 pentamer assembly assessed as size distribution of hydrodynamic diameter of pentamer assembly in presence of PPase measured after dialysis by dynamic light scattering method and transmission electron microscopy"}, "[8]": {"target": "T1, Major capsid protein L1 (Human papillomavirus 16)", "test": "Inhibition of GST-tagged HPV16 major capsid protein L1 pentamer assembly assessed as reduction in pentamer assembly at 1:50 ratio of pentamer to compound in presence of PPase by static light scattering method"}, "[9]": {"target": "T3, Major capsid protein L1 (human papillomavirus 18) (UniProt P06794)", "T3 sequence (whole entry)": "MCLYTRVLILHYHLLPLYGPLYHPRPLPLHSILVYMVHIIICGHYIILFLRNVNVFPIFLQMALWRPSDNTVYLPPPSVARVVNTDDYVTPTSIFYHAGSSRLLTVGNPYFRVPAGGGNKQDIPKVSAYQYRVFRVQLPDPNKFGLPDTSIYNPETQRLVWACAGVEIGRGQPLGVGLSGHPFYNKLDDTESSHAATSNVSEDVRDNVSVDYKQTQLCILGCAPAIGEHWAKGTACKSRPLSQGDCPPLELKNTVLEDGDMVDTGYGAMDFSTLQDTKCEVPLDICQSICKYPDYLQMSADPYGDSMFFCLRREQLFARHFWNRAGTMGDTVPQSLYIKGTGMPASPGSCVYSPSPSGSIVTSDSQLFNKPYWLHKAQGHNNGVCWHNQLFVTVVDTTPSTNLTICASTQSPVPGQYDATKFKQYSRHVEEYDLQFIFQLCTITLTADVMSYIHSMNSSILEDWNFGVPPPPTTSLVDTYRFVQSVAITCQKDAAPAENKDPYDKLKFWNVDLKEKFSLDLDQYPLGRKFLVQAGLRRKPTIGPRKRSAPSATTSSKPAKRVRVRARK", "test": "Inhibition of GST-tagged HPV18 major capsid protein L1 pentamer formation at 1:100 ratio of pentamer to compound in presence of PPase by FPLC method"}, "[10]": {"target": "T1, Major capsid protein L1 (Human papillomavirus 16)", "test": "Inhibition of GST-tagged HPV16 major capsid protein L1 pentamer assembly assessed as reduction in pentamer assembly in presence of PPase by static light scattering method"}, "[11]": {"target": "T1, Major capsid protein L1 (Human papillomavirus 16)", "test": "Inhibition of GST-tagged HPV16 major capsid protein L1 pentamer assembly assessed as size distribution of hydrodynamic diameter of pentamer assembly in presence of PPase by dynamic light scattering method (reference value: 14.9 nanometer)"}, "[12]": {"target": "T1, Major capsid protein L1 (Human papillomavirus 16)", "test": "Inhibition of pentamer formation of GST-tagged HPV16 major capsid protein L1 assessed as increased L1-m peak formation incubated with compound after overnight PPase-mediated digestion and measured after dialysis by dynamic light scattering method"}, "[13]": {"target": "T2, Major capsid protein L1", "test": "Binding affinity to GST-tagged HPV16 major capsid protein L1 using CY3-labeled compound by FRET assay"}, "[14]": {"target": "T4, Major capsid protein L1 (human papillomavirus 58) (UniProt P26535)", "T4 sequence (whole entry)": "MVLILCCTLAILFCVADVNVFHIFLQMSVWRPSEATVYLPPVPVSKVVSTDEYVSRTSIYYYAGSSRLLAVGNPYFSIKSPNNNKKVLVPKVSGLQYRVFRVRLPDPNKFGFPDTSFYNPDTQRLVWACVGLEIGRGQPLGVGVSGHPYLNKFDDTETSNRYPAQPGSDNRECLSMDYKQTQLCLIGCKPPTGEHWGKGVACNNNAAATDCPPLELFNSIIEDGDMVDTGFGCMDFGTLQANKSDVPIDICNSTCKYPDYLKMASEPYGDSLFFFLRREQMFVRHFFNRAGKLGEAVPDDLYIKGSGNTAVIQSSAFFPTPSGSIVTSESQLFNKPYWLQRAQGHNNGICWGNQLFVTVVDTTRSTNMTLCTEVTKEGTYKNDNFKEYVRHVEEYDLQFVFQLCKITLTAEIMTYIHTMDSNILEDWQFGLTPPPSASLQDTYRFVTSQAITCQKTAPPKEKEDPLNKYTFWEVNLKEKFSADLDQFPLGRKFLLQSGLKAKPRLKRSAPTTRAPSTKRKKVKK", "test": "Inhibition of GST-tagged HPV58 major capsid protein L1 pentamer formation at 1:100 ratio of pentamer to compound in presence of PPase by FPLC method"}}, "note": "pIC50, pKd: −log10 of the molar value. The source made the active and inactive calls. No cut-off for these calls is given here.", "data": [{"compound": "H-DLDQSPLGRKFLLQ-OH", "values": [{"measurement": "inhibition", "setting": "[1]", "result": "inactive"}]}, {"compound": "H-DLDQFPSSSKFLLQ-OH", "values": [{"measurement": "Activity", "setting": "[2]", "result": "inactive"}, {"measurement": "inhibition", "setting": "[1]", "result": "inactive"}]}, {"compound": "CC(C)C[C@H](NC(=O)CNC(=O)[C@H](C)NC(=O)[C@H](CCC(N)=O)NC(=O)[C@H](CC(C)C)NC(=O)[C@H](CC(C)C)NC(=O)[C@H](Cc1ccccc1)NC(=O)[C@H](CCCCN)NC(=O)[C@H](CCCNC(=N)N)NC(=O)CNC(=O)[C@H](CC(C)C)NC(=O)[C@@H]1CCCN1)C(=O)N[C@@H](CCCCN)C(=O)N[C@@H](C)C(=O)N[C@@H](CCCCN)C(=O)O", "values": [{"measurement": "pIC50", "setting": "[3]", "result": 7.32}]}, {"compound": "H-SGFLRQLGFDKLQD-OH", "values": [{"measurement": "Activity", "setting": "[4]", "result": "inactive"}, {"measurement": "inhibition", "setting": "[5]", "result": "inactive"}, {"measurement": "Activity", "setting": "[6]", "result": "inactive"}]}, {"compound": "H-PLGRKFL-OH", "values": [{"measurement": "inhibition", "setting": "[1]", "result": "inactive"}]}, {"compound": "H-DLDQFPLGR-OH", "values": [{"measurement": "inhibition", "setting": "[1]", "result": "inactive"}]}, {"compound": "CC(C)C[C@H](NC(=O)[C@H](CC(C)C)NC(=O)[C@H](Cc1ccccc1)NC(=O)[C@H](CCCCN)NC(=O)[C@H](CCCNC(=N)N)NC(=O)CNC(=O)[C@H](CC(C)C)NC(=O)[C@@H]1CCCN1C(=O)[C@H](Cc1ccccc1)NC(=O)[C@H](CCC(N)=O)NC(=O)[C@H](CC(=O)O)NC(=O)[C@H](CC(C)C)NC(=O)[C@@H](N)CC(=O)O)C(=O)N[C@@H](CCC(N)=O)C(=O)O", "values": [{"measurement": "Activity", "setting": "[7]", "result": "inactive"}, {"measurement": "inhibition", "setting": "[8]", "result": "Active"}, {"measurement": "Activity", "setting": "[4]", "result": "Active"}, {"measurement": "inhibition", "setting": "[9]", "result": "inactive"}, {"measurement": "pIC50", "setting": "[3]", "result": 7.71}, {"measurement": "inhibition", "setting": "[5]", "result": "Dose-dependent effect"}, {"measurement": "inhibition", "setting": "[10]", "result": "Dose-dependent effect"}, {"measurement": "Activity", "setting": "[11]", "result": 9.4, "unit": "nm"}, {"measurement": "Activity", "setting": "[12]", "result": "inactive"}, {"measurement": "pKd", "setting": "[13]", "result": 6.22}, {"measurement": "inhibition", "setting": "[14]", "result": "Active"}]}, {"compound": "H-DLDQFPAGRKFLLQ-OH", "values": [{"measurement": "Activity", "setting": "[2]", "result": "inactive"}, {"measurement": "inhibition", "setting": "[1]", "result": "inactive"}]}, {"compound": "H-QFPLGRKFL-OH", "values": [{"measurement": "inhibition", "setting": "[1]", "result": "Active"}]}, {"compound": "CC(C)C[C@H](NC(=O)[C@H](CC(C)C)NC(=O)[C@H](Cc1ccccc1)NC(=O)[C@H](CCCCN)NC(=O)[C@H](CCCNC(=N)N)NC(=O)CNC(=O)[C@H](CC(C)C)NC(=O)[C@@H]1CCCN1C(=O)[C@H](Cc1ccccc1)NC(=O)[C@H](CCC(N)=O)NC(=O)[C@H](CC(=O)O)NC(=O)[C@H](CO)NC(=O)[C@@H](N)CC(=O)O)C(=O)N[C@@H](CCC(N)=O)C(=O)O", "values": [{"measurement": "inhibition", "setting": "[1]", "result": "inactive"}]}, {"compound": "H-DLDQFPLGAKFLLQ-OH", "values": [{"measurement": "Activity", "setting": "[2]", "result": "inactive"}, {"measurement": "inhibition", "setting": "[1]", "result": "inactive"}]}]}
